Assay results from BindingDB's records for doi:10.1124/jpet.102.047092 (Case Western Reserve University, 2003).

Assays:
[1] = molecular target: Vasopressin V2 receptor (Homo sapiens, UniProt P30518)
[2] = molecular target: Cannabinoid receptor 1 (Rattus norvegicus, UniProt P20272)
[3] = molecular target: Beta-1 adrenergic receptor (Rattus norvegicus, UniProt P18090)
[4] = molecular target: Metabotropic glutamate receptor 4 (Rattus norvegicus, UniProt P31423)
[5] = molecular target: Metabotropic glutamate receptor 8 (Rattus norvegicus, UniProt P70579)
[6] = molecular target: 5-hydroxytryptamine receptor 1D (Homo sapiens, UniProt P28221)
[7] = molecular target: Metabotropic glutamate receptor 1 (Rattus norvegicus, UniProt P23385)
[8] = molecular target: Metabotropic glutamate receptor 6 (Rattus norvegicus, UniProt P35349)
[9] = molecular target: Histamine H1 receptor (Homo sapiens, UniProt P35367)
[10] = molecular target: Metabotropic glutamate receptor 5 (Rattus norvegicus, UniProt P31424)
[11] = molecular target: Metabotropic glutamate receptor 2 (Rattus norvegicus) (UniProt P31421)
[12] = molecular target: T1, Vasopressin V1b receptor (Homo sapiens, UniProt P47901)
T1 sequence (P47901 whole entry): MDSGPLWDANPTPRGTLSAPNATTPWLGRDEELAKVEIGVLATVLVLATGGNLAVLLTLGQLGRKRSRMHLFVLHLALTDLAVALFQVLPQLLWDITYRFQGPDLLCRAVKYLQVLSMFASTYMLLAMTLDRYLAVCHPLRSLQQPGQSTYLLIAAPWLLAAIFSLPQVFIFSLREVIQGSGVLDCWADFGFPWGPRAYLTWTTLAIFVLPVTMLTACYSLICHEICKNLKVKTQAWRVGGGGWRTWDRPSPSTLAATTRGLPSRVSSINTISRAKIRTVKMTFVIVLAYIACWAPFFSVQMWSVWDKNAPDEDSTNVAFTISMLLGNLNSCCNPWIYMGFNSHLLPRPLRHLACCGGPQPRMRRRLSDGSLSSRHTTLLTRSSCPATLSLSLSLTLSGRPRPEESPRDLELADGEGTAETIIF

[13] = molecular target: T2, Alpha-2B adrenergic receptor (Homo sapiens, UniProt P18089)
T2 sequence (P18089 whole entry): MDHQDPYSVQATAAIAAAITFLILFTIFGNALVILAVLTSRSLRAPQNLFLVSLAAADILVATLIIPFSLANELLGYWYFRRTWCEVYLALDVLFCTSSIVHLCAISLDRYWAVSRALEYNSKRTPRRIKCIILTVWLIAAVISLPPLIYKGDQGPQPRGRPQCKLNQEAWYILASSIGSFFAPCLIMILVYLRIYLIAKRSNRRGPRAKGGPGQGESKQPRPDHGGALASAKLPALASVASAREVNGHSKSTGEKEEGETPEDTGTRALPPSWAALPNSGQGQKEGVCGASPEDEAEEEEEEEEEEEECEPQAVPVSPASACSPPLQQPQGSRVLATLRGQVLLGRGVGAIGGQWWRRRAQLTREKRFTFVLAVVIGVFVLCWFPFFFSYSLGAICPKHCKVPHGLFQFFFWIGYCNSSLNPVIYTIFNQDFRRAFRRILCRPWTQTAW

Chain of Metabotropic glutamate receptor 8 (P70579 whole entry): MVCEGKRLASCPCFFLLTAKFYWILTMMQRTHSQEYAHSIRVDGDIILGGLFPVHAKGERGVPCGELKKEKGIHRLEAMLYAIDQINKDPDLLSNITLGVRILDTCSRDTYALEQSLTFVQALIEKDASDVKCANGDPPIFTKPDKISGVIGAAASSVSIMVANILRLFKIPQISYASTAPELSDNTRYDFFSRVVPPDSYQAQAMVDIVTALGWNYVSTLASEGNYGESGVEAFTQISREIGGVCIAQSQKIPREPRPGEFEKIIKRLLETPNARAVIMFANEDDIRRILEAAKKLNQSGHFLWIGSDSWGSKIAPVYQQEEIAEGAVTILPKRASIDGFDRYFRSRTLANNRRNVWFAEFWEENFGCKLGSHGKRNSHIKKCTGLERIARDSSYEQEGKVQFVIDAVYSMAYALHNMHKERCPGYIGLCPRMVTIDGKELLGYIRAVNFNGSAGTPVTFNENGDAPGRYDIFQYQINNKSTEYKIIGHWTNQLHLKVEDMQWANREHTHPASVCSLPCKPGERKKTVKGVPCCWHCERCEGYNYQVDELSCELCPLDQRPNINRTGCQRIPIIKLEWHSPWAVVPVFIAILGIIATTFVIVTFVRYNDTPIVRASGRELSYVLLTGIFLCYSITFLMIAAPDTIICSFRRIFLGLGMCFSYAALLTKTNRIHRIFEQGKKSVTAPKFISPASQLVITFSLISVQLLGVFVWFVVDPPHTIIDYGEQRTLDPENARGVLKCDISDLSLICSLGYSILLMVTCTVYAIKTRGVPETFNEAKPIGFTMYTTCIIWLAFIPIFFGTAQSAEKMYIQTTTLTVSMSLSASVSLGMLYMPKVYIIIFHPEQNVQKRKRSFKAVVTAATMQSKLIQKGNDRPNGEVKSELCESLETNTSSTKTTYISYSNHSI
Chain of Metabotropic glutamate receptor 6 (P35349 whole entry): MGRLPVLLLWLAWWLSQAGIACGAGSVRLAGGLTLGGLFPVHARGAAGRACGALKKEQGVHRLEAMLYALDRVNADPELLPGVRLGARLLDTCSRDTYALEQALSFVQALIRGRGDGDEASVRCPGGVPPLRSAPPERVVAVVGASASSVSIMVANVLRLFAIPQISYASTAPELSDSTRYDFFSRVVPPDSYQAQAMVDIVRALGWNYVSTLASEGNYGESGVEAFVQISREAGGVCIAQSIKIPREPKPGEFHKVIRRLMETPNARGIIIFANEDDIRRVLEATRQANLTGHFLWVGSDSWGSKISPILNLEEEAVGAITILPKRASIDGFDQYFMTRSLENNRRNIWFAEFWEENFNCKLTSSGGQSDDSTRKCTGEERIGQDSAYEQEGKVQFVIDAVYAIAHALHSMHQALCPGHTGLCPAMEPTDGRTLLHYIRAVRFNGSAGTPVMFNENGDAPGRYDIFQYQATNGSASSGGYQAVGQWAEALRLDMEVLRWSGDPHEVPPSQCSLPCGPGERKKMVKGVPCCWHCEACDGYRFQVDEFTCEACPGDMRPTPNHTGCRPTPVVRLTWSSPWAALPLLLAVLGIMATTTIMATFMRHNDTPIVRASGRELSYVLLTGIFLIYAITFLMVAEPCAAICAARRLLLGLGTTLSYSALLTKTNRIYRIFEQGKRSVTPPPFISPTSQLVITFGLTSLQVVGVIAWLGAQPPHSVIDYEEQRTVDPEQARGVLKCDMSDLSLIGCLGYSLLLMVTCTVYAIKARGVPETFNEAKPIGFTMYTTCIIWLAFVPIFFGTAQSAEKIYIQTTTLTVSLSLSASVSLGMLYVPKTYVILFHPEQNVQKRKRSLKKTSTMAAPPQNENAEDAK
Chain of Vasopressin V2 receptor (P30518 whole entry): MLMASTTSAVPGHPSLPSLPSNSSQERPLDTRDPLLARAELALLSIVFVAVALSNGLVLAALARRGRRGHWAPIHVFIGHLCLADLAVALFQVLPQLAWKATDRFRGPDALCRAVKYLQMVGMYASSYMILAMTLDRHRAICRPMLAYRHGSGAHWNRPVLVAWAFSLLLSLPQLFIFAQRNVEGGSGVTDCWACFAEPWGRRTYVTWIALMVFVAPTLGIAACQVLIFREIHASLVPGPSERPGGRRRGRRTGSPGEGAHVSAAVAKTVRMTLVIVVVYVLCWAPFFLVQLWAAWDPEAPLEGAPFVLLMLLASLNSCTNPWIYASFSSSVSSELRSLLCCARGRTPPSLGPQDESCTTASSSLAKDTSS
Chain of Metabotropic glutamate receptor 2 (Rattus norvegicus) (P31421 whole entry, looked up): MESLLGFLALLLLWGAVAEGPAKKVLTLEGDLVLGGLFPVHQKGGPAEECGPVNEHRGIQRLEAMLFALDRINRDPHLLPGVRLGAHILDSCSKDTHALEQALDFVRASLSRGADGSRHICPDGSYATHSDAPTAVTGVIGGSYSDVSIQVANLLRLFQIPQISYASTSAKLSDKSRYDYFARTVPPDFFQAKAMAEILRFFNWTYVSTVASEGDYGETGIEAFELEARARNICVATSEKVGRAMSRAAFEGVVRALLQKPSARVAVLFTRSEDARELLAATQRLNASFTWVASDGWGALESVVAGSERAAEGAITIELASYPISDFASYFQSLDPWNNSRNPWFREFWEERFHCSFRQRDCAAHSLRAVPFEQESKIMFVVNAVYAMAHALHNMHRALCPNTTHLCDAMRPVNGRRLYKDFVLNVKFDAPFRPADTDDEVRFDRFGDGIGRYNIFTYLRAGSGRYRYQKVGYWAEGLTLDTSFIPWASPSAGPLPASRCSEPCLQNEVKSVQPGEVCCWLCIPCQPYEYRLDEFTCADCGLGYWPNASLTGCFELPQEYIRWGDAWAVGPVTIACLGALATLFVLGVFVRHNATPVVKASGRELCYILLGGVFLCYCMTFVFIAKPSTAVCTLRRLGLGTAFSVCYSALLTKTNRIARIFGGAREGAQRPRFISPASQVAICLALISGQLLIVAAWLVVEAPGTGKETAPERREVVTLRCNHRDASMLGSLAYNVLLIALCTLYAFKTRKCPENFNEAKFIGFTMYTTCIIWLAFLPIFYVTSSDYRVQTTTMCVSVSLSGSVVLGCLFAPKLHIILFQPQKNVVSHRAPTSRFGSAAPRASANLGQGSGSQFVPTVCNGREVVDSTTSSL
Chain of Beta-1 adrenergic receptor (P18090 whole entry): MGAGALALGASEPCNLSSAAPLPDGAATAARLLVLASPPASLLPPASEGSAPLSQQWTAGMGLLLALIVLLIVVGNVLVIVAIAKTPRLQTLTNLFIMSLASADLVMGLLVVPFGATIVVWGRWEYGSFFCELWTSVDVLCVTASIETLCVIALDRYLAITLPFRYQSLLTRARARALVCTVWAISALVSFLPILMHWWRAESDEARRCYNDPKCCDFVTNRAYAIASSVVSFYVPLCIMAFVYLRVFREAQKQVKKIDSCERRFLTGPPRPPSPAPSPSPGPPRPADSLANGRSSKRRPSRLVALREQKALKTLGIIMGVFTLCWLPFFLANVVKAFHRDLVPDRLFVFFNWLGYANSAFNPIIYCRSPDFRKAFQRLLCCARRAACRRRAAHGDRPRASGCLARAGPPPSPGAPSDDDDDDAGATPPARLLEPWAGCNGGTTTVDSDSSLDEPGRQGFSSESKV
Chain of Histamine H1 receptor (P35367 whole entry): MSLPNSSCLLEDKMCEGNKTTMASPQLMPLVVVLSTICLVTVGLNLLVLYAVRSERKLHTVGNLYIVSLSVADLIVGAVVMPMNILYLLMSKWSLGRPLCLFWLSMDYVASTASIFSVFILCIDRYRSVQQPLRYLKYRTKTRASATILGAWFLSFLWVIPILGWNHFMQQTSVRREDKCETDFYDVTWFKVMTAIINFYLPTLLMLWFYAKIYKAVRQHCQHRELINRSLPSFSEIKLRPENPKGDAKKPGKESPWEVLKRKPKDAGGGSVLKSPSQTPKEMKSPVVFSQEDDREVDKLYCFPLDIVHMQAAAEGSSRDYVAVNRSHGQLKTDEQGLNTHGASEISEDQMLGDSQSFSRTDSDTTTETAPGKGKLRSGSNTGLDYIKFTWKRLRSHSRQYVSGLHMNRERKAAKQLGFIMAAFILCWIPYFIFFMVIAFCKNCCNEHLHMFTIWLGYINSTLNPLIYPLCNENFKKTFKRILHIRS
Chain of 5-hydroxytryptamine receptor 1D (P28221 whole entry): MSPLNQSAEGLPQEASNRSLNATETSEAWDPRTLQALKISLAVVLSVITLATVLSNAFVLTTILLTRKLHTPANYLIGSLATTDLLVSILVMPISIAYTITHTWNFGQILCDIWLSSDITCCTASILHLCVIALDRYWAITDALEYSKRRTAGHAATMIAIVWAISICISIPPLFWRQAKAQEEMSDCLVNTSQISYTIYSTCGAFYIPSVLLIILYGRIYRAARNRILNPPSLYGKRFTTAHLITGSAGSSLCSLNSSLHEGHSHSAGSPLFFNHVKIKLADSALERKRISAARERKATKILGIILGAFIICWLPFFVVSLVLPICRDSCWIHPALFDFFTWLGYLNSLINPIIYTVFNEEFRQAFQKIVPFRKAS
Chain of Cannabinoid receptor 1 (P20272 whole entry): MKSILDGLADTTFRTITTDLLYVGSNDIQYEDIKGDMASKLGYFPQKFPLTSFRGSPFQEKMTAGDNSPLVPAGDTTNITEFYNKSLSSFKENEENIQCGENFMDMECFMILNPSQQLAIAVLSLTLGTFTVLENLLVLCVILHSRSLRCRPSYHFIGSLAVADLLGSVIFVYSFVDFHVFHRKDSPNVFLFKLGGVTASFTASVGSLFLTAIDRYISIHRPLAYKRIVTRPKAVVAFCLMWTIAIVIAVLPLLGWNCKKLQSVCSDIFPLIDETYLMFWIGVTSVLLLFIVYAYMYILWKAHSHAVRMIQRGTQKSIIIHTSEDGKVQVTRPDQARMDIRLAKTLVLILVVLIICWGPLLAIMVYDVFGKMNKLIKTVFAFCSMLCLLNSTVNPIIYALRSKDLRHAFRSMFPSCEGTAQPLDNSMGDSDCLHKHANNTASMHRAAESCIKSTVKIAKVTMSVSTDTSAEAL

| SMILES | Ki [1] [µM] | Ki [2] [µM] | Ki [3] [µM] | EC50 [4] [µM] | EC50 [5] [µM] | Ki [6] [µM] | EC50 [7] [µM] | EC50 [8] [µM] | Ki [9] [µM] | EC50 [10] [µM] | EC50 [11] [µM] | Ki [12] [µM] | Ki [13] [µM] |
| --- | --- | --- | --- | --- | --- | --- | --- | --- | --- | --- | --- | --- | --- |
| NC(CSSCC(N)C(=O)O)C(=O)O (stereo unspecified) [CAS_595] | > 10 | > 10 | > 10 |  |  | > 10 |  |  | > 10 |  |  | > 10 | > 10 |
| N[C@H]1CCSC1=O [NSC_134505] |  | > 10 | > 10 |  |  |  |  |  | > 10 |  |  |  | > 10 |
| N[C@H](CCS(=O)(=O)O)C(=O)O [D-homocysteic acid] | > 10 | > 10 | > 10 |  |  | > 10 |  |  | > 10 |  |  | > 10 | > 10 |
| N[C@@H](CCS(=O)O)C(=O)O [L-homocysteine sulfinic acid] | > 10 | > 10 | > 10 | > 10 | > 10 | > 10 | > 10 | 6.17 | > 10 | 5.75 | > 10 | > 10 | > 10 |
| N[C@@H]1CCSC1=O [D-homocysteine thiolactone] |  | > 10 | > 10 |  |  |  |  |  | > 10 |  |  |  |  |
| N[C@@H](CCS(=O)(=O)O)C(=O)O (racemic) | > 10 |  |  |  |  | > 10 |  |  |  |  |  | > 10 | > 10 |

The next lines start with the values.

| Ki [1] [µM] | Ki [2] [µM] | Ki [3] [µM] | EC50 [4] [µM] | EC50 [5] [µM] | Ki [6] [µM] | EC50 [7] [µM] | EC50 [8] [µM] | Ki [9] [µM] | EC50 [10] [µM] | EC50 [11] [µM] | Ki [12] [µM] | Ki [13] [µM] | SMILES |
| --- | --- | --- | --- | --- | --- | --- | --- | --- | --- | --- | --- | --- | --- |
| > 10 | > 10 | > 10 | > 10 | > 10 | > 10 | > 10 | > 10 | > 10 | > 10 | > 10 | > 10 |  | N[C@H](CS(=O)(=O)O)C(=O)O [L-cysteic acid] |
| > 10 | > 10 | > 10 |  |  | > 10 |  |  | > 10 |  |  | > 10 | > 10 | N[C@@H](CCS)C(=O)O (racemic) [CAS_778] |
| > 10 | > 10 | > 10 |  |  | > 10 |  |  | > 10 |  |  | > 10 | > 10 | CSCC[C@@H](N)C(=O)O [CAS_6137] |
| > 10 | > 10 | > 10 | > 10 | > 10 | > 10 | > 10 | > 10 | > 10 | > 10 | > 10 | > 10 | > 10 | NC(CS(=O)O)C(=O)O (stereo unspecified) [CAS_109] |
| > 10 | > 10 | > 10 |  |  | > 10 |  |  | > 10 |  |  | > 10 | > 10 | N[C@H](CCS(=O)O)C(=O)O [D-homocysteine sulfinic acid] |
| > 10 | > 10 | > 10 |  |  | > 10 |  |  | > 10 |  |  | > 10 | > 10 | N[C@@H](CS)C(=O)O [CAS_5862] |
